Where a SMILES comes first, the peptide text is derived from it. Where no end group is shown, it is not given here. [ ]: non-standard residue; d: D form. The star is where a group is joined. pY = N[C@@H](Cc1ccc(OP(=O)(O)O)cc1)C(=O)O; NMeY = CN[C@@H](Cc1ccc(O)cc1)C(=O)O; Palmitoyl = CCCCCCCCCCCCCCCC(=O)*; Tle = CC(C)(C)[C@H](N)C(=O)O

Data set [1] is described as follows: Pharmacokinetic characteristics in rats after intravenous administration (plasma, LC-MS/MS). It is filed as in vivo. Conditions: SD rats, intravenous (tail vein), 10 mg/kg; for MRT inf: rat. The method, then:
Experimental Example 2: Pharmacokinetic Characteristics of Various Compounds in Rats
Intravenous administration: Three SD rats per group were administered the compounds of Example 1, Example 2, Example 3, Example 6, Example 7, Example 17, and Example 19 via the tail vein, respectively, at a dose of 10 mg/kg. all SD rats were allowed free access to food and water after administration. Plasma was collected 3 min, 10 min, 30 min, 1 h, 2 h, 6 h, 10 h, and 24 h after administration, with 3 rats per time point.
Sample processing: Whole blood was anticoagulated with EDTA-K2. Within 30 minutes of collection, the blood was centrifuged at 3000 g for 10 minutes at 2-8 °C. After centrifugation, the separated plasma was transferred to new 1.5 mL centrifuge tubes and stored at −80 °C.
Analytical method: The concentrations of each compounds in rat plasma were determined by LC-MS/MS using Shimadzu LC30AD and AB Sciex QTRAP 6500+instruments. The relevant pharmacokinetic parameters after administration were calculated.

The subject of the next data set is PC-12 cells. Put plainly: Cell viability of PC-12 neural cells under glutamate stimulation (excitotoxic cell death model, propidium iodide/Hoechst staining). It is filed as cell-based, rat. Conditions: for Normalized cell viability (%): 10 nM compound, 30 min pretreatment, then glutamate stimulation 24 h, normalized to positive control MK-801. Here is the method: 1.1. Culture of PC-12 Cell Line and Establishment of Excitotoxic Cell Death Model
PC-12 cells (a […] cell line derived from rat adrenal medulla) were cultured in DMEM/F12 complete medium until eaching 80-90% confluence. The cells were then digested, collected, resuspended, and seeded at density of 5×10^4 cells per well in a 24-well plate precoated with coverslips. Following 26 hours of cell culture, excitotoxic cell death was induced by glutamate stimulation. For model establishment: an appropriate amount of glutamate was weighed and dissolved in DMEM/F12 medium to prepare a stock solution. After filtration, the stock solution was diluted with culture medium and administered to the cells via medium replacement. The cells were further incubated for 24 hours after administration.
1.2 Administration of Small Molecules
Prior to glutamate modeling, cells incubated as described in the previous step were pretreated with 10 nM of the polypeptide compound according to the present application for 30 minutes, followed by glutamate stimulation.
1.3. Propidium Iodide Staining
Cells treated with the polypeptide compound according to the present application were stained with propidium iodide to assess cell death. After discarding the culture medium, the cells were washed with PBS, and propidium iodide/Hoechst was added. After incubating for 30 minutes, the cells were removed and the staining solution was discarded. After washing with PBS, the cells were fixed and mounted, and subjected to image acquisition under a fluorescence microscope. The number of propidium iodide-positive cells and Hoechst-positive cells in the acquired images was counted to calculate the cell viability. MK-801 was used as the positive control compound. The normalized cell viability was calculated using the following formula: (cell viability of the compound group −cell viability of the glutamate group)/(cell viability of the positive control group −cell viability of the glutamate group)×100%.
Based on the above dose-response studies of the compound, the inhibitory effects of different small-molecule compounds at the same dose (10 nM) against excitotoxic death in PC-12 neurons cells were further compared.
Based on this, the dose-response relationship of the neuroprotective effect of the polypeptide compounds according to the present application on PC-12 neural cells was analyzed.

For `CC(C)C[C@H](NC(=O)[C@H](CCCCN)NC(=O)[C@H](CC(N)=O)NC(=O)[C@H](CCCNC(=N)N)NC(=O)[C@H](CC(N)=O)NC(=O)[C@H](CCCCN)NC(=O)[C@H](CCCCN)NC(=O)[C@H](CCCNC(=N)N)NC(=O)[C@H](CCCNC(=N)N)NC(=O)[C@H](CCCNC(=N)N)NC(=O)[C@H](CCC(N)=O)NC(=O)[C@H](CCCNC(=N)N)NC(=O)[C@H](CCCNC(=N)N)NC(=O)[C@H](CCCCN)NC(=O)[C@H](CCCCN)NC(=O)[C@H](CCCNC(=N)N)NC(=O)CNC(=O)[C@@H](N)Cc1ccc(OP(=O)(O)O)cc1)C(=O)N[C@@H](CCCNC(=N)N)C(=O)N[C@@H](CCCNC(=N)N)C(=O)N[C@@H](CCC(N)=O)C(=O)N[C@@H](Cc1c[nH]cn1)C(=O)N[C@@H](CO)C(=O)N[C@@H](Cc1ccc(O)cc1)C(=O)O` [Example 3] (H-[pY]GRKKRRQRRRKKNRNKLRRQHSY-OH), in data set [1], the “T1/2” value is reported as 1.28 h; the Vss (in general, a proportionality between amount in the body and measured concentration, not a real space) is 7.90 L/kg; the MRT inf (as a rule, the average time that molecules of a dose stay in the body) was determined as 1.71 h.

With `CN[C@@H](Cc1ccc(O)cc1)C(=O)NCC(=O)N[C@@H](CCCNC(=N)N)C(=O)N[C@@H](CCCCN)C(=O)N[C@@H](CCCCN)C(=O)N[C@@H](CCCNC(=N)N)C(=O)N[C@@H](CCCNC(=N)N)C(=O)N[C@@H](CCC(N)=O)C(=O)N[C@@H](CCCNC(=N)N)C(=O)N[C@@H](CCCNC(=N)N)C(=O)N[C@@H](CCCNC(=N)N)C(=O)N[C@@H](CCCCN)C(=O)N[C@@H](CCCCN)C(=O)N[C@@H](CC(N)=O)C(=O)N[C@@H](CCCNC(=N)N)C(=O)N[C@@H](CC(N)=O)C(=O)N[C@@H](CCCCN)C(=O)N[C@@H](CC(C)C)C(=O)N[C@@H](CCCNC(=N)N)C(=O)N[C@@H](CCCNC(=N)N)C(=O)N[C@@H](CCC(N)=O)C(=O)N[C@@H](Cc1c[nH]cn1)C(=O)N[C@@H](CO)C(=O)N[C@@H](Cc1ccc(O)cc1)C(N)=O` [Example 9] (H-[NMeY]GRKKRRQRRRKKNRNKLRRQHSY-NH2), the “Normalized cell viability (%)” value in the data set on PC-12 cells came to 63.17%. Further, in the data set on PC-12 cells (dose-response relationship in promoting the viability of PC-12 neurons, glutamate stimulation), the midpoint of the response, the EC50, lay at 4.83 nM.

For `CCCCCCCCCCCCCCCC(=O)N[C@@H](Cc1ccc(O)cc1)C(=O)NCC(=O)N[C@@H](CCCNC(=N)N)C(=O)N[C@@H](CCCCN)C(=O)N[C@@H](CCCCN)C(=O)N[C@@H](CCCNC(=N)N)C(=O)N[C@@H](CCCNC(=N)N)C(=O)N[C@@H](CCC(N)=O)C(=O)N[C@@H](CCCNC(=N)N)C(=O)N[C@@H](CCCNC(=N)N)C(=O)N[C@@H](CCCNC(=N)N)C(=O)N[C@@H](CCCCN)C(=O)N[C@@H](CCCCN)C(=O)N[C@@H](CC(N)=O)C(=O)N[C@@H](CCCNC(=N)N)C(=O)N[C@@H](CC(N)=O)C(=O)N[C@@H](CCCCN)C(=O)N[C@@H](CC(C)C)C(=O)N[C@@H](CCCNC(=N)N)C(=O)N[C@@H](CCCNC(=N)N)C(=O)N[C@@H](CCC(N)=O)C(=O)N[C@@H](Cc1c[nH]cn1)C(=O)N[C@@H](CO)C(=O)N[C@@H](Cc1ccc(O)cc1)C(N)=O` [Example 10] (Palmitoyl-YGRKKRRQRRRKKNRNKLRRQHSY-NH2), the “Normalized cell viability (%)” value in the data set with PC-12 cells is on record as 49.46%.

On to `CCCCCCCCCCCCCCCC(=O)NCCOCCOCC(=O)NCCCC[C@H](NC(=O)[C@H](CCCNC(=N)N)NC(=O)[C@H](CCCNC(=N)N)NC(=O)[C@H](CCCNC(=N)N)NC(=O)[C@H](CCC(N)=O)NC(=O)[C@H](CCCNC(=N)N)NC(=O)[C@H](CCCNC(=N)N)NC(=O)[C@H](CCCCN)NC(=O)[C@H](CCCCN)NC(=O)[C@H](CCCNC(=N)N)NC(=O)CNC(=O)[C@@H](N)Cc1ccc(O)cc1)C(=O)N[C@@H](CCCCN)C(=O)N[C@@H](CC(N)=O)C(=O)N[C@@H](CCCNC(=N)N)C(=O)N[C@@H](CC(N)=O)C(=O)N[C@@H](CCCCN)C(=O)N[C@@H](CC(C)C)C(=O)N[C@@H](CCCNC(=N)N)C(=O)N[C@@H](CCCNC(=N)N)C(=O)N[C@@H](CCC(N)=O)C(=O)N[C@@H](Cc1c[nH]cn1)C(=O)N[C@@H](CO)C(=O)N[C@@H](Cc1ccc(O)cc1)C(=O)O` [Example 14, YGRKKRRQRRRK(N-AEEA-Palmitic acid)KNRNKLRRQHSY], for which the “Normalized cell viability (%)” value in the data set on PC-12 cells turned out to be 84.14%.

As to `CC(=O)N[C@@H](Cc1ccc(O)cc1)C(=O)NCC(=O)N[C@@H](CCCNC(=N)N)C(=O)N[C@@H](CCCCN)C(=O)N[C@@H](CCCCN)C(=O)N[C@@H](CCCNC(=N)N)C(=O)N[C@@H](CCCNC(=N)N)C(=O)N[C@@H](CCC(=O)O)C(=O)N[C@@H](CCCNC(=N)N)C(=O)N[C@@H](CCCNC(=N)N)C(=O)N[C@@H](CCCNC(=N)N)C(=O)N[C@@H](CCCCN)C(=O)N[C@@H](CCCCN)C(=O)N[C@@H](CC(=O)O)C(=O)N[C@@H](CCCNC(=N)N)C(=O)N[C@@H](CC(=O)O)C(=O)N[C@@H](CCCCN)C(=O)N[C@H](CC(C)C)C(=O)N[C@@H](CCCNC(=N)N)C(=O)N[C@@H](CCCNC(=N)N)C(=O)N[C@@H](CCC(=O)O)C(=O)N[C@@H](Cc1c[nH]cn1)C(=O)N[C@@H](CO)C(=O)N[C@@H](Cc1ccc(O)cc1)C(N)=O` [Example 20, Ac-YGRKKRRERRRKKDRDK(D-L)RREHSY-NH2] (Ac-YGRKKRRERRRKKDRDK[dL]RREHSY-NH2), the “Normalized cell viability (%)” value in the data set with PC-12 cells turned out to be 87.36%.

In the case of `CC(=O)N[C@@H](Cc1ccc(O)cc1)C(=O)NCC(=O)N[C@@H](CCCNC(=N)N)C(=O)N[C@@H](CCCCN)C(=O)N[C@@H](CCCCN)C(=O)N[C@@H](CCCNC(=N)N)C(=O)N[C@@H](CCCNC(=N)N)C(=O)N[C@@H](CCC(=O)O)C(=O)N[C@@H](CCCNC(=N)N)C(=O)N[C@@H](CCCNC(=N)N)C(=O)N[C@@H](CCCNC(=N)N)C(=O)N[C@@H](CCCCN)C(=O)N[C@@H](CCCCN)C(=O)N[C@@H](CC(=O)O)C(=O)N[C@@H](CCCNC(=N)N)C(=O)N[C@@H](CC(=O)O)C(=O)N[C@@H](CCCCN)C(=O)N[C@H](C(=O)N[C@@H](CCCNC(=N)N)C(=O)N[C@@H](CCCNC(=N)N)C(=O)N[C@@H](CCC(=O)O)C(=O)N[C@@H](Cc1c[nH]cn1)C(=O)N[C@@H](CO)C(=O)N[C@@H](Cc1ccc(O)cc1)C(N)=O)C(C)(C)C` [Example 25, Ac-YGRKKRRERRRKKDRDKTleRREHSY-NH2] (Ac-YGRKKRRERRRKKDRDK[Tle]RREHSY-NH2), the “Normalized cell viability (%)” value in the data set with PC-12 cells is given as 86.80%.

`CC(=O)N[C@@H](Cc1ccc(O)cc1)C(=O)NCC(=O)N[C@@H](CCCNC(=N)N)C(=O)N[C@@H](CCCCN)C(=O)N[C@H](CCCCN)C(=O)N[C@H](CCCNC(=N)N)C(=O)N[C@@H](CCCNC(=N)N)C(=O)N[C@@H](CCC(=O)O)C(=O)N[C@@H](CCCNC(=N)N)C(=O)N[C@H](CCCNC(=N)N)C(=O)N[C@@H](CCCNC(=N)N)C(=O)N[C@@H](CCCCN)C(=O)N[C@@H](CCCCN)C(=O)N[C@@H](CC(=O)O)C(=O)N[C@@H](CCCNC(=N)N)C(=O)N[C@@H](CC(=O)O)C(=O)N[C@@H](CCCCN)C(=O)N[C@H](CC(C)C)C(=O)N[C@H](CCCNC(=N)N)C(=O)N[C@@H](CCCNC(=N)N)C(=O)N[C@@H](CCC(=O)O)C(=O)N[C@@H](Cc1c[nH]cn1)C(=O)N[C@@H](CO)C(=O)N[C@@H](Cc1ccc(O)cc1)C(N)=O` [Example 26, Ac-YGRK(D-K)(D-R)RER(D-R)RKKDRDK(D-L)(D-R)REHSY-NH2] (Ac-YGRK[dK][dR]RER[dR]RKKDRDK[dL][dR]REHSY-NH2): in the data set with PC-12 cells, the “Normalized cell viability (%)” value is 82.39%.

Regarding “Ac-YGRKKRRERRRKKDRDKLRREHSY-NH2 [Example 18]”, in the data set with PC-12 cells, the “Normalized cell viability (%)” value came out at 87.20%.

In the case of “Ac-YGRKKRRERRRKKDRDKVRREHSY-NH2 [Example 23]”, the “Normalized cell viability (%)” value in the data set on PC-12 cells worked out at 74.16%.

Ac-YGRKKRRQRRRKKNRNKLRRQHSY [Example 4]: in the data set on PC-12 cells, the “Normalized cell viability (%)” value amounted to 85.00%.

Regarding YGRKKRRERRRKKDRNKLRRQHSY [Example 17], in data set [1], the “T1/2” value amounted to 1.66 h, the “Vss” value is recorded as 23.1 L/kg and the MRT inf worked out at 2.29 h.
